Columns and labels:
[1] = tested on: inactivated Group A β-hemolytic streptococcus; experiment: Visual evaluation of red line on detection part of immunochromatographic device; conditions: for Result of Visual Evaluation (After Storage at 50° C. for 24 Hours): device stored at 50° C. for 24 hours, then positive analyte sample 5×10^5 org/mL, 5 minutes; for Result of Visual Evaluation (After 5 Minutes): positive analyte sample 5×10^5 org/mL, 150 μL, member order of FIG. 3, acid content per pad as in Table 1
Description: (§1) The immunochromatographic device and the analyte dilution solution produced above were used, and a sample obtained by adding inactivated Group A β-hemolytic streptococcus at 5×10^5 org/mL was used as a positive analyte sample.
The analyte sample in an amount of 150 μL was dropped to the sample droplet receiving part of the device and developed, and a visual evaluation was made after 5 minutes. Any of the following marks was given: “+” (positive) when the red line on the detection part (4) could be visually observed; “++” (strong positive) when the red line could be visually observed clearly; “±” (weak positive) when a light red line could be visually observed; and “−” (negative) when the red line could not be visually observed.
Separately from the above evaluation, the immunochromatographic device produced above were stored at 50° C. for 24 hours, and then the measurement and the visual evaluation were conducted. […]
Immunochromatographic kits were produced and measurement was conducted in the same manners as in Example 1 except that the kind of the acid anhydride in Example 1 was changed to those shown in Table 1.

[2] = Sublimation at 25° C. at 20 Pa (weight change after 12 hours under reduced pressure); format: physicochemical; conditions: 1 g acid, reduced pressure 25° C., weight change within or exceeding 5%
Description: Whether the acids used in the Examples and the Comparative Examples sublimate at 25° C. at 20 Pa was examined by the following method. First, 1 g of an acid was measured in a glass vial, and the weight was measured after subjecting the acid to reduced pressure at 25° C. at 20 Pa for 12 hours.

[3] = tested on: inactivated Group A β-hemolytic streptococcus; experiment: Color intensity of red line on detection part measured with immunochromatoreader
Description: as §1
The color intensity of the red line on the detection part (4) five minutes after starting development was measured with an immunochromatoreader (manufactured by Hamamatsu Photonics K.K.). As a result, the color intensity was 83.7 mAbs.
An immunochromatographic kit was produced in the same manner as in Example 1 except that the sample droplet receiving member (1), the acid anhydride containing member (7), the labeling substance retaining member (2), the chromatography medium member (3) having the detection part (4) and the absorption member (5) were pasted to a base material composed of a backing sheet (6) in a manner that the members were linked in this order along the direction of sample development (the order shown in FIG. 1), and the color intensity was measured with an immunochromatoreader (manufactured by Hamamatsu Photonics K.K.). As a result, the color intensity after five minutes was 48.1 mAbs.
An immunochromatographic kit was produced in the same manner as in Example 3 except that “malic acid” was used instead of “bicyclo[2,2,2]oct-7-ene-2,3,5,6-tetracarboxylic dianhydride”, which is the acid anhydride, and the color intensity after five minutes was measured with an immunochromatoreader (manufactured by Hamamatsu Photonics K.K.). As a result, the color intensity was 4.1 mAbs.

[4] = five minutes after starting development, member order of FIG. 3 (acid-containing member downstream of labeling member)

| Compound | Result of Visual Evaluation (After Storage at 50° C. for 24 Hours) [1] | Result of Visual Evaluation (After 5 Minutes) [1] | Sublimation at 25° C. at 20 Pa [2] | color intensity of the red line on the detection part (4) ([3]; after five minutes, member order of FIG. 1 (acid anhydride member upstream of labeling member)) [mAbs] | color intensity of the red line on the detection part (4) [3, 4] [mAbs] |
| --- | --- | --- | --- | --- | --- |
| O=C(ON1C(=O)CCC1=O)c1ccccc1 [Comparative Example 1, N-(benzoyloxy)succinimide] | − | − |  |  |  |
| O=C1OC(=O)[C@@H]2CC=CC[C@H]12 [Comparative Example 9, cis-4-cyclohexene-1,2-dicarboxylic anhydride] | − | + | A (“A” indicates that the acid did not sublimate) |  |  |
| O=C1OC(=O)C2C3C=CC(C12)C1C(=O)OC(=O)C31 (stereo not drawn) [Example 1, bicyclo[2,2,2]oct-7-ene-2,3,5,6-tetracarboxylic dianhydride] | ++ | ++ | A (“A” indicates that the acid did not sublimate) | 48.1 | 83.7 |
| O=c1oc(=O)c2cc3c(=O)oc(=O)c3cc12 [Example 2, pyromellitic anhydride] | ++ | ++ | A (“A” indicates that the acid did not sublimate) |  |  |
| CC#Cc1ccc2c(c1)C(=O)OC2=O [Example 3, 4-(1-propynyl)phthalic anhydride] | + | + | A (“A” indicates that the acid did not sublimate) |  |  |
| CC(=O)Nc1cccc2c1C(=O)OC2=O [Example 4, 3-acetamidophthalic anhydride] | + | + | A (“A” indicates that the acid did not sublimate) |  |  |
| O=C1OC(=O)C2CC3C(=O)OC(=O)C3CC12 (stereo not drawn) [Example 5, 1,2,4,5-cyclohexanetetracarboxylic dianhydride] | ++ | ++ | A (“A” indicates that the acid did not sublimate) |  |  |
| O=C1CC(C2CC3C(=O)OC(=O)C3c3ccccc32)C(=O)O1 (stereo not drawn) [Example 6, 4-(2,5-dioxotetrahydrofuran-3-yl)-1,2,3,4-tetrahydronaphthalene-1,2-dicarboxylic anhydride] | ++ | ++ | A (“A” indicates that the acid did not sublimate) |  |  |
| O=C1CCC(=O)O1 [compound 2, succinic anhydride] | − | ++ | B (“B” indicates that the acid sublimated) |  |  |
| O=C(O)CC(O)C(=O)O (stereo not drawn) [compound 3, malic acid] | − | − |  |  | 4.1 |
| C=C(CC(=O)O)C(=O)O [compound 4, itaconic acid] | − | − |  |  |  |
| O=C(O)CN(CCO)CCO [compound 5, N,N-bis(2-hydroxyethyl)glycine] | − | − |  |  |  |
| CCCCCCCC/C=C\CCCCCCCC(=O)O [compound 6, oleic acid] | − | − |  |  |  |
| N[C@@H](CCC(=O)O)C(=O)O [compound 7, glutamic acid] | − | − |  |  |  |
| O=C1CC(c2ccccc2)C(=O)O1 (stereo not drawn) [compound 8, phenylsussinic acid anhydride] | − | + | A (“A” indicates that the acid did not sublimate) |  |  |
| octadecenylsuccinic anhydride [Reference Example 2] | ± | ± | A (“A” indicates that the acid did not sublimate) |  |  |
